As a reminder, the EC50 is the concentration that produces a half-maximal response.

The subject of the first assay is SARS-CoV-2 strain USA-WA1/2020. As to the kind of experiment: microbe, parasite or virus in culture. The format is cell-based. Conditions: Severe acute respiratory syndrome coronavirus 2, HeLa-ACE2, 24 h, HeLa-ACE2 cells, SARS-CoV-2 infection, 24 h; bound printed in cell; read-out: EC50, uM (Hela).
Take `Cn1cncc1C(O)C(=O)N1CC2(CC2)C[C@H]1C(=O)N[C@@H](C[C@@H]1CCNC1=O)C(=O)COC(F)(F)F` (stereo partly drawn) [Compound 383, (6S)-5-(2-hydroxy-2-(1-methyl-1H-imidazol-5-yl)acetyl)-N-((S)-3-oxo-1-((S)-2-oxopyrrolidin-3-yl)-4-(trifluoromethoxy)butan-2-yl)-5-azaspiro[2.4]heptane-6-carboxamide]: the EC50 is > 1 µM.
On the same count and under the same terms, the result for `O=C1NCC[C@H]1C[C@H](NC(=O)[C@@H]1CC2(CC2)CN1C(=O)C(O)C1CCS(=O)(=O)CC1)C(=O)COC(F)(F)F` (stereo partly drawn) [Compound 388, (6S)-5-(2-(l,l-dioxidotetrahydro-2H-thiopyran-4-yl)-2-hydroxyacetyl)-N-((S)-3-oxo-1-((S)-2-oxopyrrolidin-3-yl)-4-(trifluoromethoxy)butan-2-yl)-5-azaspiro[2.4]heptane-6-carboxamide] reads > 1 µM.

Still in this assay, the particulars now being: Severe acute respiratory syndrome coronavirus 2, HeLa-ACE2, 24 h, HeLa-ACE2 cells, SARS-CoV-2 infection, 24 h; class symbols; read-out: EC50, uM (Hela).
Turning to `CO[C@H](CC(C)C)C(=O)N1CC2(CC2)C[C@H]1C(=O)N[C@@H](C[C@@H]1CCNC1=O)C(=O)COC(F)(F)F` [Compound 381, (S)-5-((R)-2-methoxy-4-methylpentanoyl)-N-((S)-3-oxo-1-((S)-2-oxopyrrolidin-3-yl)-4-(trifluoromethoxy)butan-2-yl)-5-azaspiro[2.4]heptane-6-carboxamide], the 50% effective concentration (EC50) was < 0.05 µM.
Still for that read-out and setting: the result for `COc1ccccc1[C@@H](O)C(=O)N1C[C@H]2[C@@H]([C@H]1C(=O)N[C@@H](C[C@@H]1CCNC1=O)C(=O)COC(F)(F)F)C2(C)C` [Compound 382, (1R,2S,5S)-3-((R)-2-hydroxy-2-(2-methoxyphenyl)acetyl)-6,6-dimethyl-N-((S)-3-oxo-1-((S)-2-oxopyrrolidin-3-yl)-4-(trifluoromethoxy)butan-2-yl)-3-azabicyclo-[3.1.0]hexane-2-carboxamide] reads < 0.05 µM; that for `CC(C)C[C@H](NC(=O)[C@H](O)C(F)(F)F)C(=O)N[C@@H](C[C@@H]1CCNC1=O)C(=O)COC(F)(F)F` [Compound 384, (S)-4-methyl-N-((S)-3-oxo-1-((S)-2-oxopyrrolidin-3-yl)-4-(trifluoromethoxy)butan-2-yl)-2-((S)-3,3,3-trifluoro-2-hydroxypropanamido)-pentanamide], 0.05 to 0.2 µM.
On the same count and under the same terms, the result for `O=C1NCC[C@H]1C[C@H](NC(=O)[C@@H]1CC2(CC2)CN1C(=O)[C@H](O)C(F)(F)F)C(=O)COC(F)(F)F` [Compound 385, (S)-N-((S)-3-oxo-1-((S)-2-oxopyrrolidin-3-yl)-4-(trifluoromethoxy)butan-2-yl)-5-((S)-3,3,3-trifluoro-2-hydroxypropanoyl)-5-azaspiro[2.4]heptane-6-carboxamide] reads 0.05 to 0.2 µM; that for `CC1(C)[C@@H]2[C@@H](C(=O)N[C@@H](C[C@@H]3CCNC3=O)C(=O)COC(F)(F)F)N(C(=O)[C@H](O)C(F)(F)F)C[C@@H]21` [Compound 386, (1R,2S,5S)-6,6-dimethyl-N-((S)-3-oxo-1-((S)-2-oxopyrrolidin-3-yl)-4-(trifluoromethoxy)butan-2-yl)-3-((S)-3,3,3-trifluoro-2-hydroxypropanoyl)-3-azabicyclo[3.1.0]-hexane-2-carboxamide], 0.05 to 0.2 µM.
As to `O=C1NCC[C@H]1C[C@H](NC(=O)[C@@H]1CC2(CC2)CN1C(=O)[C@@H](O)C(F)(F)F)C(=O)COC(F)(F)F` [Compound 387, (S)-N-((S)-3-oxo-1-((S)-2-oxopyrrolidin-3-yl)-4-(trifluoromethoxy)butan-2-yl)-5-((R)-3,3,3-trifluoro-2-hydroxypropanoyl)-5-azaspiro[2.4]-heptane-6-carboxamide], the EC50 lay in the range of 0.05 to 0.2 µM.
As to `O=C1NCC[C@H]1C[C@H](NC(=O)[C@@H]1CC2(CC2)CN1C(=O)C(O)CC(C(F)(F)F)C(F)(F)F)C(=O)COC(F)(F)F` (stereo partly drawn) [Compound 389, (6S)-N-((S)-3-oxo-1-((S)-2-oxopyrrolidin-3-yl)-4-(trifluoromethoxy)butan-2-yl)-5-(5,5,5-trifluoro-2-hydroxy-4-(trifluoromethyl)-pentanoyl)-5-azaspiro[2.4]heptane-6-carboxamide], the EC50 was < 0.05 µM.
Still for that read-out and setting: with `O=C1NCC[C@H]1C[C@H](NC(=O)[C@@H]1CC2(CC2)CN1C(=O)C(O)CC(F)(F)F)C(=O)COC(F)(F)F` (stereo partly drawn) [Compound 390, (6S)-N-((S)-3-oxo-1-((S)-2-oxopyrrolidin-3-yl)-4-(trifluoromethoxy)butan-2-yl)-5-(4,4,4-trifluoro-2-hydroxybutanoyl)-5-azaspiro[2.4]heptane-6-carboxamide] the figure was 0.05 to 0.2 µM; with `CC1(C)[C@@H]2[C@@H](C(=O)N[C@@H](C[C@@H]3CCNC3=O)C(=O)COC(F)(F)F)N(C(=O)C(O)CC(F)(F)F)C[C@@H]21` (stereo partly drawn) [Compound 391, (1R,2S,5S)-6,6-dimethyl-N-((S)-3-oxo-1-((S)-2-oxopyrrolidin-3-yl)-4-(trifluoromethoxy)butan-2-yl)-3-(4,4,4-trifluoro-2-hydroxybutanoyl)-3-azabicyclo[3.1.0]-hexane-2-carboxamide], 0.05 to 0.2 µM.
The same measure, in the same setting: the result for `O=C1NCC[C@H]1C[C@H](NC(=O)[C@@H]1CC2(CC2)CN1C(=O)[C@H](O)CC1CC1)C(=O)COC(F)(F)F` [Compound 392, (S)-5-((R)-3-cyclopropyl-2-hydroxypropanoyl)-N-((S)-3-oxo-1-((S)-2-oxopyrrolidin-3-yl)-4-(trifluoromethoxy)butan-2-yl)-5-azaspiro[2.4]heptane-6-carboxamide] reads 0.05 to 0.2 µM; that for `O=C1NCC[C@H]1C[C@H](NC(=O)[C@@H]1[C@H]2CCC[C@H]2CN1C(=O)[C@H](O)CC1CC1)C(=O)COC(F)(F)F` [Compound 393, (1S,3aR,6aS)-2-((R)-3-cyclopropyl-2-hydroxypropanoyl)-N-((S)-3-oxo-1-((S)-2-oxopyrrolidin-3-yl)-4-(trifluoromethoxy)butan-2-yl)octahydrocyclo-penta[c]pyrrole-1-carboxamide], < 0.05 µM.
Same read-out and setting: with `CC1(C)[C@@H]2[C@@H](C(=O)N[C@@H](C[C@@H]3CCNC3=O)C(=O)COC(F)(F)F)N(C(=O)[C@@H](O)CC3CC3)C[C@@H]21` [Compound 394, (1R,2S,5S)-3-((S)-3-cyclopropyl-2-hydroxypropanoyl)-6,6-dimethyl-N-((S)-3-oxo-1-((S)-2-oxopyrrolidin-3-yl)-4-(trifluoromethoxy)butan-2-yl)-3-azabicyclo[3.1.0] hexane-2-carboxamide] the figure was < 0.05 µM; with `O=C1NCC[C@H]1C[C@H](NC(=O)[C@@H]1CC2(CC2)CN1C(=O)C(O)CCC(F)(F)F)C(=O)COC(F)(F)F` (stereo partly drawn) [Compound 395, (6S)-N-((S)-3-oxo-1-((S)-2-oxopyrrolidin-3-yl)-4-(trifluoromethoxy)butan-2-yl)-5-(5,5,5-trifluoro-2-hydroxypentanoyl)-5-azaspiro[2.4]heptane-6-carboxamide], 0.05 to 0.2 µM; with `CC(C)C[C@H](NC(=O)[C@H](O)CF)C(=O)N[C@@H](C[C@@H]1CCNC1=O)C(=O)COC(F)(F)F` [Compound 396, (S)-2-((S)-3-fluoro-2-hydroxypropanamido)-4-methyl-N-((S)-3-oxo-1-((S)-2-oxopyrrolidin-3-yl)-4-(trifluoromethoxy)butan-2-yl)pentanamide], 0.2 to 0.5 µM.
As to `O=C1NCC[C@H]1C[C@H](NC(=O)[C@@H]1CC2(CC2)CN1C(=O)[C@H](O)CF)C(=O)COC(F)(F)F` [Compound 397, (S)-5-((S)-3-fluoro-2-hydroxypropanoyl)-N-((S)-3-oxo-1-((S)-2-oxopyrrolidin-3-yl)-4-(trifluoromethoxy)butan-2-yl)-5-azaspiro[2.4]heptane-6-carboxamide], the concentration for a half-maximal effect (EC50) lay in the range of 0.05 to 0.2 µM.
The same measure, in the same setting: with `O=C1NCC[C@H]1C[C@H](NC(=O)[C@@H]1CC2(CC2)CN1C(=O)[C@H](O)Cc1ccccc1)C(=O)COC(F)(F)F` [Compound 398, (S)-5-((R)-2-hydroxy-3-phenylpropanoyl)-N-((S)-3-oxo-1-((S)-2-oxopyrrolidin-3-yl)-4-(trifluoromethoxy)butan-2-yl)-5-azaspiro[2.4]heptane-6-carboxamide] the figure was 0.05 to 0.2 µM; with `O=C1NCC[C@H]1C[C@H](NC(=O)[C@@H]1CC2(CC2)CN1C(=O)C(O)c1cc(F)c(F)c(F)c1)C(=O)COC(F)(F)F` (stereo partly drawn) [Compound 399, (6S)-5-(2-hydroxy-2-(3,4,5-trifluorophenyl)acetyl)-N-((S)-3-oxo-1-((S)-2-oxopyrrolidin-3-yl)-4-(trifluoromethoxy)butan-2-yl)-5-azaspiro[2.4]heptane-6-carboxamide], 0.05 to 0.2 µM; with `O=C1NCC[C@H]1C[C@H](NC(=O)[C@@H]1CC2(CC2)CN1C(=O)C(O)c1ccc(F)c(F)c1)C(=O)COC(F)(F)F` (stereo partly drawn) [Compound 400, (6S)-5-(2-(3,4-difluorophenyl)-2-hydroxyacetyl)-N-((S)-3-oxo-1-((S)-2-oxopyrrolidin-3-yl)-4-(trifluoromethoxy)butan-2-yl)-5-azaspiro[2.4]heptane-6-carboxamide], 0.05 to 0.2 µM.
Still for that read-out and setting: the result for `CC1(C)[C@@H]2[C@@H](C(=O)N[C@@H](C[C@@H]3CCNC3=O)C(=O)COC(F)(F)F)N(C(=O)C(O)c3ccc(F)c(F)c3)C[C@@H]21` (stereo partly drawn) [Compound 401, (1R,2S,5S)-3-(2-(3,4-difluorophenyl)-2-hydroxyacetyl)-6,6-dimethyl-N-((S)-3-oxo-1-((S)-2-oxopyrrolidin-3-yl)-4-(trifluoromethoxy)butan-2-yl)-3-azabicyclo[3.1.0]hexane-2-carboxamide] reads < 0.05 µM.

Still in this assay, the particulars now being: Severe acute respiratory syndrome coronavirus 2, HeLa-ACE2, 24 h, HeLa-ACE2 cells, SARS-CoV-2 infection, 24 h; read-out: EC50, uM (Hela).
On to `O=C1NCC[C@H]1C[C@H](NC(=O)[C@@H]1CC2(CC2)CN1C(=O)C(O)c1ccc(F)cc1F)C(=O)COC(F)(F)F` (stereo partly drawn) [Compound 402, (6S)-5-(2-(2,4-difluorophenyl)-2-hydroxyacetyl)-N-((S)-3-oxo-1-((S)-2-oxopyrrolidin-3-yl)-4-(trifluoromethoxy)butan-2-yl)-5-azaspiro[2.4]heptane-6-carboxamide], for which the EC50 was < 0.05 µM.

Values taken from patent US11708348B2, “Protease inhibitors for treatment of coronavirus infections” (The Scripps Research Institute, priority 2021, dated 2023).
